Consider 13 molecules from ChEMBL document CHEMBL1144573, “Lead optimization of [(S)-gamma-(arylamino)prolyl]thiazolidine focused on gamma-substituent: Indoline compounds as potent DPP-IV inhibitors” (Bioorg Med Chem, 2007).

Test [1] has as its target Dipeptidyl peptidase 4 (Rattus norvegicus, UniProt P14740). Put plainly: Inhibition of DPP4 in rat plasma by fluorescence assay. Format: cell-free.
The target in test [2] is Dipeptidyl peptidase 4 (Homo sapiens, UniProt P27487). It counts as cell-free, Plasma.

By IC50 is commonly meant the concentration at which inhibition is half-maximal.

Dipeptidyl peptidase 4 (Rattus norvegicus, UniProt P14740), sequence (P14740 whole entry): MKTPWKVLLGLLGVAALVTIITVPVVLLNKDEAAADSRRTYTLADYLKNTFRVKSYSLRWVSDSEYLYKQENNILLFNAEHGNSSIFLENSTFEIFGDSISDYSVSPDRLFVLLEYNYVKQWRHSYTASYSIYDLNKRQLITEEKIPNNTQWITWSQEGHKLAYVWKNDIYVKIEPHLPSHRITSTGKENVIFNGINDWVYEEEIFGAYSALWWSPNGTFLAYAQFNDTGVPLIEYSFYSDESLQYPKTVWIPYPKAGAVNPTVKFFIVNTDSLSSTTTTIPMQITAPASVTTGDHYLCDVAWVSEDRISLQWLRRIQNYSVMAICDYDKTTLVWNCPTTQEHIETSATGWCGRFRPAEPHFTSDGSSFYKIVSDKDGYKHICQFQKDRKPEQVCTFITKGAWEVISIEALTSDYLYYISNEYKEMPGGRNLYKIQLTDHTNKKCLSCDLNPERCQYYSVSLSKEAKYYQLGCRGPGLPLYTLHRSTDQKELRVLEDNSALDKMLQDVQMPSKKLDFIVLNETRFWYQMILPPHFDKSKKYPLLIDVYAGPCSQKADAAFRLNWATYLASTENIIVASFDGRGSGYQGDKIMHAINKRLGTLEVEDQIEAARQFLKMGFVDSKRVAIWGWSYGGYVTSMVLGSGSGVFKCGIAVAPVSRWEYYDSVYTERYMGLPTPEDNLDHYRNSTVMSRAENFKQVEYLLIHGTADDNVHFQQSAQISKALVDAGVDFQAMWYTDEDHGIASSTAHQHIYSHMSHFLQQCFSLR
Dipeptidyl peptidase 4 (Homo sapiens, UniProt P27487), sequence (P27487 whole entry): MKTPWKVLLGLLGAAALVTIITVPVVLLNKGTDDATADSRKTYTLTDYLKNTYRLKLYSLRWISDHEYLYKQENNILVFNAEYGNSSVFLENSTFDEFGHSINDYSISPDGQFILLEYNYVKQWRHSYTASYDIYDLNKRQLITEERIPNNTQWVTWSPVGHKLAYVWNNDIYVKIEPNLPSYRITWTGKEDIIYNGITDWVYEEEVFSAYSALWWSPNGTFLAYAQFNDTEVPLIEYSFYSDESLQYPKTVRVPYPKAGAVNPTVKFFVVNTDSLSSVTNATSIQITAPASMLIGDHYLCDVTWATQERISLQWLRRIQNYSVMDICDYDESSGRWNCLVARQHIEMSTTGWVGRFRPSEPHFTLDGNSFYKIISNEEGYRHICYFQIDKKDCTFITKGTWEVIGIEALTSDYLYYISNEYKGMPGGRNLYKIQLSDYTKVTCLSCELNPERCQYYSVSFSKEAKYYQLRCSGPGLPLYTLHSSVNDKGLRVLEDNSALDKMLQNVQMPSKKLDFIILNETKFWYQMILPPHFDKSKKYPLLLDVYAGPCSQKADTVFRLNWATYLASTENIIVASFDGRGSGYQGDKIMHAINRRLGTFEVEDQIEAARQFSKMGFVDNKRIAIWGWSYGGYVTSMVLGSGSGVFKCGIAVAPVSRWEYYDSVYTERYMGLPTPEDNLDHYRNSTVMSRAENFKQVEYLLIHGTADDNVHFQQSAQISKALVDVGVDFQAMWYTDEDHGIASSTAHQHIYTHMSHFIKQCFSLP

Regarding `CN(Cc1ccc(C#N)cc1)[C@@H]1CN[C@H](C(=O)N2CCSC2)C1`, the IC50 at Dipeptidyl peptidase 4 [1] was found to be 13.6 nM. Same read-out and setting: next, `N#Cc1ccc(CN(CCO)[C@@H]2CN[C@H](C(=O)N3CCSC3)C2)cc1`: 23 nM. Take `N#Cc1ccc(C(=O)O[C@@H]2CN[C@H](C(=O)N3CCSC3)C2)cc1`: the IC50 against Dipeptidyl peptidase 4 [1] and against Dipeptidyl peptidase 4 [2] was above 300 nM each time. On to `O=C(N[C@@H]1CN[C@H](C(=O)N2CCSC2)C1)c1ccccc1`, for which the IC50 at Dipeptidyl peptidase 4 [2] was above 300 nM. At Dipeptidyl peptidase 4 [1], `O=C([C@@H]1C[C@H](N2CCc3cc(F)ccc32)CN1)N1CCSC1` showed an IC50 of 10.1 nM. This counts as double-digit nanomolar.

In turn, `O=C([C@@H]1C[C@H](N2CCc3cc([N+](=O)[O-])ccc32)CN1)N1CCSC1` had an IC50 against Dipeptidyl peptidase 4 [1] of 10.3 nM.

As for `O=C([C@@H]1C[C@H](N2CCc3cc(Cl)ccc32)CN1)N1CCSC1`, inhibition against Dipeptidyl peptidase 4 [1] was half-maximal at 13.4 nM (IC50). For `N#Cc1ccc(S(=O)(=O)N[C@@H]2CN[C@H](C(=O)N3CCSC3)C2)cc1`, the IC50 against Dipeptidyl peptidase 4 [1] and on Dipeptidyl peptidase 4 [2] was above 300 nM each time.

Consider `O=C(O[C@@H]1CN[C@H](C(=O)N2CCSC2)C1)c1ccccc1`, for which the IC50 against Dipeptidyl peptidase 4 [1] and at Dipeptidyl peptidase 4 [2] was above 300 nM in each case. The molecule `O=C([C@@H]1C[C@H](N2CCc3cc(Br)ccc32)CN1)N1CCSC1` gave a concentration for half-maximal inhibition (IC50) on Dipeptidyl peptidase 4 [1] of 10.7 nM. Consider `O=C([C@@H]1C[C@H](N2CCc3ccccc32)CN1)N1CCSC1`, for which, at Dipeptidyl peptidase 4 [1], the IC50 worked out at 19.5 nM. Consider `O=C([C@@H]1C[C@H](NS(=O)(=O)c2ccccc2)CN1)N1CCSC1`, for which the IC50 against Dipeptidyl peptidase 4 [1] and at Dipeptidyl peptidase 4 [2] was above 300 nM throughout. On to `COc1ccc(N[C@@H]2CN[C@H](C(=O)N3CCSC3)C2)cc1`, for which the midpoint of inhibition against Dipeptidyl peptidase 4 [1], the IC50, lay at 54.9 nM.
